One assay has as its system SK-N-SH cells. The conditions noted are these: U-0126 given with the tested compounds.
Another assay concerns mature oligodendrocytes. In words: Oligodendrocyte toxicity assay, mature oligodendrocytes (OL), SIN-1, LDH release. It counts as cell-based, rat. To be noted: compound 10 nm, 1 hour pretreatment, Sin-1 10 mM, LDH after 24 hours.
For assay [1], the system named is Primary rat oligodendrocyte progenitor cells. Nature of the assay: Oligodendrocyte toxicity assay, progenitor cells (OLP), SIN-1, LDH release. It counts as cell-based. To be noted: compound 10 nm, 1 hour pretreatment; Sin-1 10 mM; LDH after 24 hours; oligodendrocyte progenitors. A general note: LDH in the medium is a marker of cell lysis.
Description: (§1) Primary rat oligodendrocyte progenitor cells were obtained from the cerebra of 2-3 day old postnatal rats (Sprague Dawley). The meninges were removed and tissue was mechanically dissociated. Cells were plated on T75 flasks and fed with DMEM+10% FBS.
(§2) Enriched OLPs were collected by mechanical separation from the astrocytic monolayer and were expanded in serum free media (SFM) supplemented with the mitogens, PDGF-AA (10 ng/ml) and FGF-2 (10 ng/ml).
(§3) Cells were plated in 96-well plates, 10,000 per well. Medium was changed to fresh medium and cells were pretreated with compounds for 1 hour. Toxins were added to give the following final concentrations: • Sin-1 10 mM • Pyrogallol 500 μM • C2 ceramide 100 μM • Camptothecin 10 μM
(§4) After 24 hours, medium was removed and assayed for LDH activity using the Promega cytotox 96 kit (catalog# G1780). Results were calculated as percent protection against toxin-induced toxicity.

This is an account of results in patent publication US20080033005A1, “METHODS FOR THE TREATMENT OF MULTIPLE SCLEROSIS” (AVENTIS PHARMACEUTICALS INC., priority 2004, published 2008).

Description for SK-N-SH cells: Cells from a human neuroblastoma cell line, SK-N-SH cells, were plated at 50,000 cells/well in Costar Biocoat 96-well poly-D-lysine coated plates in EMEM (Minimum Essential Medium Eagle with Earle's salts) containing penicillin/streptomycin, L-glutamine, sodium pyruvate, non-essential amino acids and sodium bicarbonate. Cells were grown overnight in a 37° C. incubator under 5% CO2. The next day, the medium was removed and replaced with fresh medium. Cells were pretreated with Serms for 1 hour, and SIN-1 (3-morpholinosydnonimine, which produces peroxynitrite) was added to give a final concentration of 2 or 10 mM. After 24 hours, the medium was removed and assayed for LDH activity using the Promega cytotox 96 kit (catalog# G1780). Results were calculated as percent protection against SIN-1 toxicity.
Description for mature oligodendrocytes: as §1, §2
To generate mature oligodendrocytes, progenitor cells were switched to SFM supplemented with IGF-1 (10 ng/ml) 24 hours after plating and cells were grown under these conditions for 7 days prior to experimental assays.
as §3, §4

As for `N#CC(=C(/N)Sc1ccccc1N)/C(C#N)=C(\N)Sc1ccccc1N` [U-0126], the “effect of MEK inhibitor on the neuroprotection by the compounds” value in the assay with SK-N-SH cells is “inhibition of the neuroprotection”. For the compound `COc1ccc(-c2sc3cc(O)ccc3c2Oc2ccc(OCCN3CCCCC3)cc2)cc1` [Arzoxifen], in the assay with mature oligodendrocytes, the “% Protection (SIN-1*) OL 10 nm” value stood at 8.237%. For the same compound, the “% Protection (SIN-1*) OLP 10 nm” value in assay [1] is 1.485%.
